The values below come from paper PMC10547636 (Pharmaceutical Research, 2023).

For data set [1] the following is noted: adults; ref [3], [4]; cited from earlier work.
Data set [2] is described as follows: Population pharmacokinetic analysis (NONMEM) of intravenous PCM and its metabolites in plasma and urine of preterm neonates born below 32 weeks of gestation. The conditions noted are these: for fVG / fVS / fVO, distribution volume of metabolite as fraction of VP of PCM: V = fV×VP. Format: in vivo. As for the experimental part: Two datasets were pooled in this study. […] The second dataset consisted of data from 83 neonates born before 32 weeks of gestation who were included in the Drug dosage Improvement in Neonates (DINO) study between September 2014 and July 2017. This study was conducted in four Dutch Neonatal Intensive Care Units. The Erasmus Medical Center ethics review board approved the protocols, and written informed consent from parents/legal guardians was obtained before study initiation (NL47409.078.14, MEC-2014-067, NCT02421068). […] The actual urine collection interval and volume varied and were recorded. Plasma samples of all patients were available. […] In dataset 2, the dosing schedule was based on current weight according to Wang et al. […] The dosing regimen could be adapted in individual patients by the treating physician. […] No urine samples were collected. […] For those BLOQ samples, the values obtained with the assay were still reported and these were used in the PopPK analysis. […] Processing and visualization of output from NONMEM were performed in R 4.2.3 (CRAN.R-project.org). Parameters were estimated using the first-order conditional estimation with interaction (FOCE + I) method. […] Parameter precision was obtained with the R covariance matrix. […] The stochastic model included interindividual variability (IIV) and residual variability (RUV). […] SD assumes that the standard deviation of the residual error is the sum of the additive and proportional components. Separate SD1 and SD2 values were tested for each dataset, compound and for plasma and urine samples. […] In those cases, linear interpolation was used for current weight between two existing current weight measurements of the particular patient. For implementation of continuous covariates (birthweight, current weight, GA, PNA, PMA, birthweight Z-score), linear, power, exponential, and sigmoidal functions were tested. For categorical covariates (gender, SGA), additive shift models were tested. Covariates were evaluated based on OFV by a stepwise forward inclusion (ΔOFV > 6.64, P < 0.01) and backward deletion (ΔOFV < 10.83, P > 0.001) process. Besides this, goodness of fit plots split for datasets and covariate quartiles, plots of individual eta-values versus covariate values (ETA plots), and reduction in inter-individual variability on the parameter of interest, were evaluated. A bootstrap analysis (n = 500) stratified on dataset, was performed to assess the robustness of the final model and parameter estimates. […] The NPDEs of urine samples were plotted together due to a limited number of samples per compound. […] This was done to illustrate the concentration-time profiles of each compound under the current practice of linear bodyweight-based dosing. […] In these simulations, the growth curves published by Anchieta et al.

On to `CC(=O)Nc1ccc(O)cc1` [PCM, paracetamol], for which, in data set [1], the “fraction of PCM metabolized into sulphate conjugate” value was approximately 30%, the “fraction of administered PCM excreted unchanged in the urine” value was 2–5% and the “fraction of administered dose metabolized via the oxidative route (NAPQI)” value was 8–10%. In addition, the “θPNA50, PNA at which RFS reaches half of RFS0, bootstrap” value in data set [2] (PNA in days, bootstrap estimate (95% CI)) is reported as 8.71 (4.55–15.6). Moreover, the “θPNA50, PNA at which RFS reaches half of RFS0” value in data set [2] (PNA in days, final model estimate (RSE %)) is reported as 9.18 (23). The “non-linear formation of CYP2E1 pathway metabolites (PCM-cysteine and PCM-mercapturate)” value in data set [2] (among the dosages given in this study) is given as “could not identify this non-linearity”. The “predicted difference in glucuronidation of PCM with PNA” value in data set [2] (between day 1 and day 30) was “sixfold”. For the same molecule, in data set [2] (bootstrap estimate (95% CI)), the “θBWb, power exponent of birthweight (BWb/985) on RFG, bootstrap” value is 0.487 (0.137–0.917) and the “θBWc, power exponent of current weight (BWc/1012) on VP, bootstrap” value is 0.844 (0.659–1.05). Moreover, the “VPP, distribution volume of the peripheral compartment, bootstrap” value in data set [2] (bootstrap estimate (95% CI), in L) is recorded as 0.247 (0.167–0.348). Further, the “TVVP, typical distribution volume of the central compartment (VP), bootstrap” value in data set [2] (current weight 1012 g, bootstrap estimate (95% CI)) is 0.955 (0.775–1.030) L. In data set [2] (current weight 1012 g, final model estimate (RSE %)), the “TVVP, typical distribution volume of the central compartment (VP)” value is 0.955 (3) L. In addition, in data set [2] (final model estimate (RSE %)), the “θBWb, power exponent of birthweight (BWb/985) on RFG” value was 0.479 (45) and the “θBWc, power exponent of current weight (BWc/1012) on VP” value is reported as 0.836 (11). The “VPP, distribution volume of the peripheral compartment” value in data set [2] (final model estimate (RSE %), in L) is 0.244 (12). For the same molecule, in data set [2] (preterm neonates of this study), the “contribution of glucuronidation to elimination in neonates” value is 5–15%.

Regarding `CC(=O)Nc1ccc(O[C@@H]2O[C@H](C(=O)O)[C@@H](O)[C@H](O)[C@H]2O)cc1` [PCM-glucuronide, paracetamol-glucuronide], in data set [2] (final model estimate (RSE %)), the “fVG / fVS / fVO, distribution volume of metabolite as fraction of VP of PCM” value is reported as 0.6 (9). Moreover, the “TVCLrG / TVCLrS / TVCLrO, typical renal clearance of metabolite, bootstrap” value in data set [2] (birthweight 985 g, PNA 5 days, bootstrap estimate (95% CI)) is reported as 0.0428 (0.0383–0.0482) L/h. Further, in data set [2] (birthweight 985 g, PNA 5 days, final model estimate (RSE %)), the “TVCLrG / TVCLrS / TVCLrO, typical renal clearance of metabolite” value is given as 0.0425 (5) L/h. Moreover, the “fVG / fVS / fVO, distribution volume of metabolite as fraction of VP of PCM, bootstrap” value in data set [2] (bootstrap estimate (95% CI)) was 0.6 (0.5–0.8).

Take `CC(=O)Nc1ccc(OS(=O)(=O)O)cc1` [PCM-sulfate, paracetamol-sulfate]: the “fVG / fVS / fVO, distribution volume of metabolite as fraction of VP of PCM” value in data set [2] (final model estimate (RSE %)) is reported as 0.326 (4). For the same molecule, the “fVG / fVS / fVO, distribution volume of metabolite as fraction of VP of PCM, bootstrap” value in data set [2] (bootstrap estimate (95% CI)) is 0.330 (0.300–0.417).
